Experimental data from patent US20060058286A1, “Methods of treating HIV infection” (priority 2004, published 2006).
pEC50: −log10 of the molar value.

Assays:
HIV-1 NL4-3 [1] = experiment: microbe, parasite or virus in culture
Method: (§1) Virus and cell lines. The T-cell line, MT-2 was obtained through the AIDS Research and Reference Reagent Program, NIAID and was contributed by Dr. D. Richman. The cell line was cultured in RPMI 1640 medium supplemented with 10% fetal bovine serum, 2 mM L-glutamine and sub-cultured twice a week. The NL4-3 strain of HIV-1 was obtained from the AIDS Research and Reference Reagent Program. Both virus stocks were amplified and titered in MT-2 cells using a virus infectivity assay.
(§2) Drug Susceptibility and Cytotoxicity Assays. For drug susceptibility assays, MT-2 cells were infected with HIV-1 NL4-3 at an MOI of 0.001, and seeded into 96-well microtiter plates (2.5×10^5 cells/ml) containing serial dilutions of test compounds. […] Each drug ratio consisted of an array of 3-fold serial dilutions, and was performed in quadruplicate. The plates were incubated at 37° C./5% CO2. The MT-2 cells infected with HIV-1 NL4-3 were incubated for 5 days. On day-five post-infection, 20 μl from each well was harvested and quantitated by a reverse transcriptase (RT) assay or an MTS assay. Cytotoxicity assays were performed using uninfected cells, exposed to the same drug combinations, and incubated for five days. Cell viability was determined by an XTT assay. The CC50 values were calculated by using the exponential form of the median effect equation as mentioned below for calculation of EC50.
(§3) In this equation, Fa stands for “fraction affected,” and represents the fraction of the viral load that has been inactivated.
In carrying out the combination experiments below, the EC50 for Compound 1 and each comparator compound was determined during the course of each study, and used in the subsequent data analysis.

HIV-1 NL4-3 [2] = experiment: Two-drug combination study with Compound 1 (combination indices); type: cell-based; conditions: for Combination Indices at 50% HIV Inhibition (Confidence Interval) / Combination Indices at 75% HIV Inhibition (Confidence Interval) / Combination Indices at 90% HIV Inhibition (Confidence Interval): 95% CI in parentheses; for Overall Result: overall antiviral effect of the two-drug combination with Compound 1, all ratios and effective levels
Method: as §1, §2
Analysis of Drug Combination Effects. For determination of CI values, drugs were diluted in a fixed ratio and multiple ratios were analyzed. The drug serial dilutions spanned a range of concentrations near the EC50 value of each compound, so that equivalent antiviral activities could be compared. Concentration-response curves were estimated for each individual drug and every combination using the median-effect equation. The equation was fit using a nonlinear regression routine (Proc Nlin) in PC SAS version 8.01 (SAS Institute Inc., SAS Version 8.01, Cary, N.C.: SAS Institute Inc., 1990).
as §3
To assess antiviral effects of different drug combination treatments, combination indices (CIs) were calculated according to Chou and Rideout. The combination index was computed as CI=[D]1/[Dm]1+[D]2/[Dm]2
In this equation [Dm]1 and [Dm]2 are the concentrations of drugs that would individually produce a specific level of effect, while [D]1 and [D]2 are the concentrations of drugs in combination that would produce the same level of effect.
Theoretically, additivity is implied if the CI is equal to one, synergy if the CI is less than one, and antagonism if the CI is greater than one. […] At best, we can construct a range that contains the likely values for the CI, given the noise in the data. In this report, these ranges are reported in parentheses next to each point estimate of the CI. […] If the range fell entirely above 1.0, we would infer antagonistic behavior. If the range were to include 1.0, we would infer additivity.

[3] = Human immunodeficiency virus 1, NL43, MT2, 120 h
[4] = combination with Compound 1, EC50 ratio 1:1 (Compound 1:comparator)
[5] = combination with Compound 1, EC50 ratio 1:2.5 (Compound 1:comparator)
[6] = combination with Compound 1, EC50 ratio 2.5:1 (Compound 1:comparator)

SMILES | pEC50 (HIV-1 NL4-3 [1]; [3]) | Combination Indices at 50% HIV Inhibition (Confidence Interval) (HIV-1 NL4-3 [2]; [4]) | Combination Indices at 75% HIV Inhibition (Confidence Interval) (HIV-1 NL4-3 [2]; [4]) | Combination Indices at 90% HIV Inhibition (Confidence Interval) (HIV-1 NL4-3 [2]; [4]) | Combination Indices at 50% HIV Inhibition (Confidence Interval) (HIV-1 NL4-3 [2]; [5]) | Combination Indices at 75% HIV Inhibition (Confidence Interval) (HIV-1 NL4-3 [2]; [5]) | Combination Indices at 90% HIV Inhibition (Confidence Interval) (HIV-1 NL4-3 [2]; [5]) | Combination Indices at 50% HIV Inhibition (Confidence Interval) (HIV-1 NL4-3 [2]; [6]) | Combination Indices at 75% HIV Inhibition (Confidence Interval) (HIV-1 NL4-3 [2]; [6]) | Combination Indices at 90% HIV Inhibition (Confidence Interval) (HIV-1 NL4-3 [2]; [6]) | Overall Result (HIV-1 NL4-3 [2]) | also measured
Cc1ccnc2c1NC(=O)c1cccnc1N2C1CC1 [Nevirapine, nevirapine] | 7.07 | 0.51 (0.39, 0.63) | 0.30 (0.20, 0.40) | 0.18 (0.08, 0.27) | 0.63 (0.42, 0.83) | 0.40 (0.22, 0.59) | 0.26 (0.07, 0.46) | 0.52 (0.39, 0.64) | 0.32 (0.22, 0.43) | 0.21 (0.10, 0.31) | Synergistic | Overall Result (HIV-1 NL4-3 [2]; listed as nevirapine): strong synergistic effects
CC(C)(C)NC(=O)[C@@H]1C[C@@H]2CCCC[C@@H]2CN1C[C@@H](O)[C@H](Cc1ccccc1)NC(=O)[C@H](CC(N)=O)NC(=O)c1ccc2ccccc2n1 [Saquinavir, saquinavir] | 7.96 | 0.65 (0.49, 0.80) | 0.85 (0.56, 1.14) | 1.20 (0.55, 1.84) | 0.55 (0.42, 0.68) | 0.97 (0.65, 1.29) | 1.81 (0.86, 2.77) | 0.47 (0.38, 0.56) | 0.60 (0.44, 0.75) | – | Additive- | Overall Result (HIV-1 NL4-3 [2]; listed as saquinavir): additive to synergistic
Cc1cn([C@H]2C=C[C@@H](CO)O2)c(=O)[nH]c1=O [Stavudine, stavudine] | 7.26 | 0.63 (0.42, 0.85) | 0.51 (0.29, 0.74) | 0.43 (0.10, 0.75) | 1.32 (0.94, 1.69) | 0.68 (0.41, 0.94) | 0.36 (0.12, 0.59) | 1.20 (0.88, 1.51) | 0.71 (0.45, 0.96) | 0.43 (0.17, 0.68) | Additive- | combination effect at the 50% effective level (HIV-1 NL4-3 [2]; combination with Compound 1): additivity; combination effect at the 75% and 90% effective levels (HIV-1 NL4-3 [2]; combination with Compound 1): synergy; Overall Result (HIV-1 NL4-3 [2]; listed as stavudine): additive-synergistic
C[C@H](Cn1cnc2c(N)ncnc21)OCP(=O)(O)O [Tenofovir, tenofovir] | – | 1.30 (1.00, 1.61) | 1.02 (0.69, 1.35) | 0.80 (0.39, 1.21) | 0.93 (0.63, 1.23) | 0.99 (0.54, 1.43) | 1.06 (0.31, 1.80) | 1.03 (0.65, 1.40) | 0.84 (0.42, 1.27) | 0.70 (0.14, 1.25) | Additive | pEC50 (HIV-1 NL4-3 [1]; MT-2 cells infected with HIV-1 NL4-3, MOI 0.001, 5 days, single drug): 8.52

Continued, in another order:

pEC50 (HIV-1 NL4-3 [1]; [3]) | SMILES | Combination Indices at 50% HIV Inhibition (Confidence Interval) (HIV-1 NL4-3 [2]; [4]) | Combination Indices at 75% HIV Inhibition (Confidence Interval) (HIV-1 NL4-3 [2]; [4]) | Combination Indices at 90% HIV Inhibition (Confidence Interval) (HIV-1 NL4-3 [2]; [4]) | Combination Indices at 50% HIV Inhibition (Confidence Interval) (HIV-1 NL4-3 [2]; [5]) | Combination Indices at 75% HIV Inhibition (Confidence Interval) (HIV-1 NL4-3 [2]; [5]) | Combination Indices at 90% HIV Inhibition (Confidence Interval) (HIV-1 NL4-3 [2]; [5]) | Combination Indices at 50% HIV Inhibition (Confidence Interval) (HIV-1 NL4-3 [2]; [6]) | Combination Indices at 75% HIV Inhibition (Confidence Interval) (HIV-1 NL4-3 [2]; [6]) | Combination Indices at 90% HIV Inhibition (Confidence Interval) (HIV-1 NL4-3 [2]; [6]) | Overall Result (HIV-1 NL4-3 [2]) | also measured
8.22 | CC(C)(C)NC(=O)[C@@H]1CN(Cc2cccnc2)CCN1C[C@@H](O)C[C@@H](Cc1ccccc1)C(=O)N[C@H]1c2ccccc2C[C@H]1O [Indinavir, indinavir] | 0.64 (0.42, 0.85) | 1.17 (0.63, 1.71) | 2.15 (0.53, 3.78) | 0.92 (0.68, 1.16) | 1.07 (0.68, 1.46) | 1.24 (0.51, 1.97) | 0.41 (0.29, 0.53) | 0.70 (0.42, 0.97) | 1.19 (0.40, 1.97) | Additive- | Overall Result (HIV-1 NL4-3 [2]; listed as indinavir): additive to synergistic
6.72 | Nc1ccn([C@@H]2CS[C@H](CO)O2)c(=O)n1 [Lamivudine, lamivudine] | 0.69 (0.58, 0.81) | 0.49 (0.38, 0.61) | 0.37 (0.25, 0.50) | 0.58 (0.52, 0.65) | 0.60 (0.51, 0.69) | 0.64 (0.49, 0.80) | 0.93 (0.65, 1.20) | 0.78 (0.46, 1.10) | 0.70 (0.24, 1.16) | – | –
7.85 | Cc1cccc(C)c1OCC(=O)N[C@@H](Cc1ccccc1)[C@@H](O)C[C@H](Cc1ccccc1)NC(=O)[C@H](C(C)C)N1CCCNC1=O [Lopinavir, lopinavir] | 0.16 (0.11, 0.22) | 0.16 (0.08, 0.24) | 0.16 (0.04, 0.28) | – | 0.57 (0.46 0.68) | 0.32 (0.22, 0.42) | 1.60 (1.28, 1.92) | 0.78 (0.56, 1.00) | 0.38 (0.22, 0.55) | Additive- | Overall Result (HIV-1 NL4-3 [2]; listed as lopinavir): additive to synergistic
8.10 | Cc1c(O)cccc1C(=O)N[C@@H](CSc1ccccc1)[C@H](O)CN1C[C@H]2CCCC[C@H]2C[C@H]1C(=O)NC(C)(C)C [Nelfinavir, nelfinavir] | 0.55 (0.45, 0.65) | 0.57 (0.42, 0.71) | 0.59 (0.35, 0.83) | 0.41 (0.34, 0.49) | 0.50 (0.38, 0.63) | 0.62 (0.36, 0.87) | 0.82 (0.65, 0.99) | 0.84 (0.60, 1.08) | 0.87 (0.47, 1.27) | Moderately | combination effect at the 5:1 and 2:1 molar ratios (HIV-1 NL4-3 [2]; combination with Compound 1, all effective levels): synergy; combination effect at the 12.5:1 molar ratio (HIV-1 NL4-3 [2]; combination with Compound 1, only at the 75% and 90% effective levels): bias toward additivity; Overall Result (HIV-1 NL4-3 [2]; listed as nelfinavir): moderately synergistic
7.62 | CC(C)c1nc(CN(C)C(=O)N[C@H](C(=O)N[C@@H](Cc2ccccc2)C[C@H](O)[C@H](Cc2ccccc2)NC(=O)OCc2cncs2)C(C)C)cs1 [Ritonavir, ritonavir] | 1.35 (0.72, 1.97) | 1.74 (0.61, 2.87) | 2.56 (0.00, 5.18) | 1.23 (0.73, 1.74) | 1.24 (0.53, 1.96) | 1.39 (0.13, 2.65) | 1.37 (0.95, 1.80) | 1.18 (0.67, 1.68) | 1.13 (0.37, 1.88) | Additive | –
